Assay results: PMC9653409, “Generative deep learning enables the discovery of a potent and selective RIPK1 inhibitor” (Nature Communications, 2022)
Read-outs that look alike come from different tables or passages of the source.

Experiments:
Experiment in all cases: Kinase inhibitory activity profiling of RI-962@10 µM (406 kinases, Eurofins)
Format in all cases: biochemical
[1] = biological target: panel of human kinases (kinase named in endpoint) (Homo sapiens, UniProt Q9H2K8); conditions: 10 µM; read-out: Activity (%), TAO3(h)
Outline: (§1)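 Radiometric filter-binding kinase assays: enzyme preincubated 15 min with compound in 8 mM MOPS pH 7.0, 0.2 mM EDTA, 250 μM peptide substrate, 10 mM magnesium acetate, 10 μM [γ-33P]-ATP. Reaction started with Mg/ATP, run 40 min at room temperature, stopped with phosphoric acid; 33P incorporation read by scintillation counting. Other kinases by similar protocols.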

[2] = biological target: panel of human kinases (kinase named in endpoint) (Homo sapiens, UniProt P00519, Y253F); conditions: 10 µM; read-out: Activity (%), Abl(Y253F)(h)
Outline: as §1

[3] = biological target: panel of human kinases (kinase named in endpoint) (Homo sapiens, UniProt P49840); conditions: 10 µM; read-out: Activity (%), GSK3α(h)
Outline: as §1

[4] = biological target: panel of human kinases (kinase named in endpoint) (Homo sapiens, UniProt P17252); conditions: 10 µM; read-out: Activity (%), PKCα(h)
Outline: as §1

[5] = biological target: panel of human kinases (kinase named in endpoint) (Homo sapiens, UniProt Q15139); conditions: 10 µM; read-out: Activity (%), PKCμ(h)
Outline: as §1

[6] = biological target: panel of human kinases (kinase named in endpoint) (Homo sapiens, UniProt P00533, L858R); conditions: 10 µM; read-out: Activity (%), EGFR(L858R)(h)
Outline: as §1

[7] = biological target: panel of human kinases (kinase named in endpoint) (Homo sapiens, UniProt P42681); conditions: 10 µM; read-out: Activity (%), Txk(h)
Outline: as §1

[8] = biological target: panel of human kinases (kinase named in endpoint) (Homo sapiens, UniProt Q9UIK4); conditions: 10 µM; read-out: Activity (%), DAPK2(h)
Outline: as §1

[9] = biological target: panel of human kinases (kinase named in endpoint) (Homo sapiens, UniProt P16234); conditions: 10 µM; read-out: Activity (%), PDGFRα(h)
Outline: as §1

[10] = biological target: panel of human kinases (kinase named in endpoint) (Homo sapiens, UniProt Q9HBH9); conditions: 10 µM; read-out: Activity (%), Mnk2(h)
Outline: as §1

[11] = biological target: panel of human kinases (kinase named in endpoint) (Homo sapiens, UniProt P37173); conditions: 10 µM; read-out: Activity (%), TGFBR2(h)
Outline: as §1

[12] = biological target: panel of human kinases (kinase named in endpoint) (Homo sapiens, UniProt O75582); conditions: 10 µM; read-out: Activity (%), MSK1(h)
Outline: as §1

[13] = biological target: panel of human kinases (kinase named in endpoint) (Homo sapiens, UniProt P10721, D816H); conditions: 10 µM; read-out: Activity (%), cKit(D816H)(h)
Outline: as §1

[14] = biological target: panel of human kinases (kinase named in endpoint) (Homo sapiens, UniProt Q86Y07); conditions: 10 µM; read-out: Activity (%), VRK2(h)
Outline: as §1

[15] = biological target: panel of human kinases (kinase named in endpoint) (Homo sapiens, UniProt P48730); conditions: 10 µM; read-out: Activity (%), CK1δ(h)
Outline: as §1

[16] = biological target: panel of human kinases (kinase named in endpoint) (Homo sapiens, UniProt O75385); conditions: 10 µM; read-out: Activity (%), ULK1(h)
Outline: as §1

[17] = biological target: panel of human kinases (kinase named in endpoint) (Homo sapiens, UniProt Q15835); conditions: 10 µM; read-out: Activity (%), GRK1(h)
Outline: as §1

[18] = biological target: panel of human kinases (kinase named in endpoint) (Homo sapiens, UniProt Q15375); conditions: 10 µM; read-out: Activity (%), EphA7(h)
Outline: as §1

[19] = biological target: panel of human kinases (kinase named in endpoint) (Homo sapiens, UniProt Q13043); conditions: 10 µM; read-out: Activity (%), MST1(h)
Outline: as §1

[20] = biological target: panel of human kinases (kinase named in endpoint) (Homo sapiens, UniProt P78368); conditions: 10 µM; read-out: Activity (%), CK1γ2(h)
Outline: as §1

[21] = biological target: panel of human kinases (kinase named in endpoint) (Homo sapiens, UniProt Q8IY84); conditions: 10 µM; read-out: Activity (%), NIM1(h)
Outline: as §1

[22] = biological target: panel of human kinases (kinase named in endpoint) (Homo sapiens, UniProt Q00535); conditions: 10 µM
Outline: as §1

[23] = biological target: panel of human kinases (kinase named in endpoint) (Homo sapiens, UniProt O60331); conditions: 10 µM; read-out: Activity (%), PIP5K1g(h)
Outline: as §1

[24] = biological target: panel of human kinases (kinase named in endpoint) (Homo sapiens, UniProt O96017, R145W); conditions: 10 µM; read-out: Activity (%), CHK2(R145W)(h)
Outline: as §1

[25] = biological target: panel of human kinases (kinase named in endpoint) (Homo sapiens, UniProt Q16832); conditions: 10 µM; read-out: Activity (%), DDR2(h)
Outline: as §1

Chain of panel of human kinases (kinase named in endpoint) (Homo sapiens, UniProt Q00535) (Q00535 whole entry): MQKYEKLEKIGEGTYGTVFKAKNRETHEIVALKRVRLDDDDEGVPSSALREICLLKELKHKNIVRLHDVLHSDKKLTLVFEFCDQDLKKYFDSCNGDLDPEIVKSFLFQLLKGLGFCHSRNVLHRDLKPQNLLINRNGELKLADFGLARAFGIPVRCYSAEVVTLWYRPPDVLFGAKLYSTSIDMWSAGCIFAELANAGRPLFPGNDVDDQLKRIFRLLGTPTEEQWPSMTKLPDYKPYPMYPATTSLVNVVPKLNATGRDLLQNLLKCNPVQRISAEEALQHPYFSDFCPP
Chain of panel of human kinases (kinase named in endpoint) (Homo sapiens, UniProt Q13043) (Q13043 whole entry): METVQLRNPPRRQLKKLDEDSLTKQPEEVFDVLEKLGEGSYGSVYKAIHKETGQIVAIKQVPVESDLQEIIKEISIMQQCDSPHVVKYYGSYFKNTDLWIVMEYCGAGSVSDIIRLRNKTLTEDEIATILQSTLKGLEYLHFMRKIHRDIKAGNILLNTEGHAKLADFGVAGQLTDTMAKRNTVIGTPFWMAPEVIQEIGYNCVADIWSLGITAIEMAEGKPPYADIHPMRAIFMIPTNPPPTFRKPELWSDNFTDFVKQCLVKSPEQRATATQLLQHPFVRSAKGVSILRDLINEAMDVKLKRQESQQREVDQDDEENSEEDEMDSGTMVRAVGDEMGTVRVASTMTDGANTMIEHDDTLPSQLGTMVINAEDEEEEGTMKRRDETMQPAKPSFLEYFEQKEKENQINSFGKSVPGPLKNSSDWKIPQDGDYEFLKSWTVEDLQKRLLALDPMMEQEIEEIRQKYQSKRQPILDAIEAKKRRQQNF
Chain of panel of human kinases (kinase named in endpoint) (Homo sapiens, UniProt O96017, R145W) (O96017 whole entry R145W): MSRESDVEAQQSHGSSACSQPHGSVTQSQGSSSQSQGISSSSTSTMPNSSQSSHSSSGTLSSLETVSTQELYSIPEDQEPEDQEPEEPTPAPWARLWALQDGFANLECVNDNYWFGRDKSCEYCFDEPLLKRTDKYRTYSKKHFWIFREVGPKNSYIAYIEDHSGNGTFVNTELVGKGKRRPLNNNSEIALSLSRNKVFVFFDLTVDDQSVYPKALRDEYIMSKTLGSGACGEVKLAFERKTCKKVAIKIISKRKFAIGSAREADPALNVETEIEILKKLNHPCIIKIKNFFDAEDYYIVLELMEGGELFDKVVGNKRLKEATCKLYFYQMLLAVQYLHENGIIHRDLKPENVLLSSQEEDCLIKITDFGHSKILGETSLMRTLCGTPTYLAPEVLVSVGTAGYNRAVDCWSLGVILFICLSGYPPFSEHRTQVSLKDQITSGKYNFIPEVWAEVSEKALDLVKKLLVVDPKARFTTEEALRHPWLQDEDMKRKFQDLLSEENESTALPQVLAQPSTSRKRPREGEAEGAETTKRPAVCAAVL
Chain of panel of human kinases (kinase named in endpoint) (Homo sapiens, UniProt P42681) (P42681 whole entry): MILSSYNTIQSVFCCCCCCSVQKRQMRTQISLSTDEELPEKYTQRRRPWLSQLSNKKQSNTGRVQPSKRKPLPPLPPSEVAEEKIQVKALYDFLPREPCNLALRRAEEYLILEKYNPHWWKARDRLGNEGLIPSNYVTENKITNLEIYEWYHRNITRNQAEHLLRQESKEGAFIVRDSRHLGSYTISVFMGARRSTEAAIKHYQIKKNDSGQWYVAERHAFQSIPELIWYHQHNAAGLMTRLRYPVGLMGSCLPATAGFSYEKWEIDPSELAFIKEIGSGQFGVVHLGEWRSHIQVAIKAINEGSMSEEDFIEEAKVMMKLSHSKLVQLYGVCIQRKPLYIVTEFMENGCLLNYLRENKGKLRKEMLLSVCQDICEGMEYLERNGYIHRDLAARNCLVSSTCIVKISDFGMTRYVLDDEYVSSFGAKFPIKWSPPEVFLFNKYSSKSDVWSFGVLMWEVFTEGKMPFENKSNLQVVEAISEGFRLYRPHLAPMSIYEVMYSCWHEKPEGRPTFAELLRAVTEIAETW
Chain of panel of human kinases (kinase named in endpoint) (Homo sapiens, UniProt Q86Y07) (Q86Y07 whole entry): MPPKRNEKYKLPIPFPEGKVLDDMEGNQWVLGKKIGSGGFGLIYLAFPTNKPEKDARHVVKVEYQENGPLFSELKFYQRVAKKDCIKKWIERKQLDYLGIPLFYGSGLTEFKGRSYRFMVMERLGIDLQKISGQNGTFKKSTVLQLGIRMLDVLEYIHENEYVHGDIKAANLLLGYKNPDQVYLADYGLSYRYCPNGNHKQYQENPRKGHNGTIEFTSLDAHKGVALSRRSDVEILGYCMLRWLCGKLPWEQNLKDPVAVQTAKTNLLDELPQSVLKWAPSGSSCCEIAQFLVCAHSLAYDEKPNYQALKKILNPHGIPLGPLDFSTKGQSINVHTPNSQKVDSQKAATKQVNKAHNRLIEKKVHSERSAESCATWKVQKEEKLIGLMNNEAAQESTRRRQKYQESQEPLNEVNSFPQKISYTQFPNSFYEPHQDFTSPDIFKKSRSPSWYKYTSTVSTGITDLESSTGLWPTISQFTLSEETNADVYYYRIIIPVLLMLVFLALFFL
Chain of panel of human kinases (kinase named in endpoint) (Homo sapiens, UniProt Q8IY84) (Q8IY84 whole entry): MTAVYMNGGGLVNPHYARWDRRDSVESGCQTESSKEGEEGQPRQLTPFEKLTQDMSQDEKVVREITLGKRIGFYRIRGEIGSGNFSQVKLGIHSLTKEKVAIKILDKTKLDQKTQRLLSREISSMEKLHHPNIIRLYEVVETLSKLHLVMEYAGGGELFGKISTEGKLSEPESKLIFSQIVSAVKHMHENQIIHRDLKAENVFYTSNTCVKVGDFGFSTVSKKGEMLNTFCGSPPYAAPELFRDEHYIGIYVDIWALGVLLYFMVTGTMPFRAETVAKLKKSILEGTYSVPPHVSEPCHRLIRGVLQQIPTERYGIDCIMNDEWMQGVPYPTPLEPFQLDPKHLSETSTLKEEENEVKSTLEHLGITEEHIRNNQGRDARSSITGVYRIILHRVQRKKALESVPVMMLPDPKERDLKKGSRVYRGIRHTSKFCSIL
Chain of panel of human kinases (kinase named in endpoint) (Homo sapiens, UniProt Q16832) (Q16832 22-855): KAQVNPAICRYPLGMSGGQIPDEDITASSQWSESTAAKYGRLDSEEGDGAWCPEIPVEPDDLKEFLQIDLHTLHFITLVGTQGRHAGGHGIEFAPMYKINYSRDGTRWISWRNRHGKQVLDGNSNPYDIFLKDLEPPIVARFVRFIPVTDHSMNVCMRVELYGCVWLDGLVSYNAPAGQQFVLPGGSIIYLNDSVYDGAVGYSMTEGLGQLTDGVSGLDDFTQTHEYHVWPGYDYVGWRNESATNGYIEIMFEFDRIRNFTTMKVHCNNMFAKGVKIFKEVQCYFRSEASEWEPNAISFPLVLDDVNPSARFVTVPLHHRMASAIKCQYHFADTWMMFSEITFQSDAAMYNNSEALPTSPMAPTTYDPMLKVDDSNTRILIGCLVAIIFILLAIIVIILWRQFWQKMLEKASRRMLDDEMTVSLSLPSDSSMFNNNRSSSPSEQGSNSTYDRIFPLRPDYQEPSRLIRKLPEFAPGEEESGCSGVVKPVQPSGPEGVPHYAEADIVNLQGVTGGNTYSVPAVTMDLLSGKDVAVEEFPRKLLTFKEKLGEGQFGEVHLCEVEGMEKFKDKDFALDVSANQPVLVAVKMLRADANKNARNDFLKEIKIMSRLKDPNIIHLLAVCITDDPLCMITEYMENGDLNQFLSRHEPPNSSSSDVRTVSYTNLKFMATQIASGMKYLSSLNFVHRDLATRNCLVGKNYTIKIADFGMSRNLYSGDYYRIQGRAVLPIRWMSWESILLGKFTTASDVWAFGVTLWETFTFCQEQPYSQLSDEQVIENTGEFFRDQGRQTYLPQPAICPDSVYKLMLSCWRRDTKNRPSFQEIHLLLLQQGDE
Chain of panel of human kinases (kinase named in endpoint) (Homo sapiens, UniProt Q9H2K8) (Q9H2K8 whole entry): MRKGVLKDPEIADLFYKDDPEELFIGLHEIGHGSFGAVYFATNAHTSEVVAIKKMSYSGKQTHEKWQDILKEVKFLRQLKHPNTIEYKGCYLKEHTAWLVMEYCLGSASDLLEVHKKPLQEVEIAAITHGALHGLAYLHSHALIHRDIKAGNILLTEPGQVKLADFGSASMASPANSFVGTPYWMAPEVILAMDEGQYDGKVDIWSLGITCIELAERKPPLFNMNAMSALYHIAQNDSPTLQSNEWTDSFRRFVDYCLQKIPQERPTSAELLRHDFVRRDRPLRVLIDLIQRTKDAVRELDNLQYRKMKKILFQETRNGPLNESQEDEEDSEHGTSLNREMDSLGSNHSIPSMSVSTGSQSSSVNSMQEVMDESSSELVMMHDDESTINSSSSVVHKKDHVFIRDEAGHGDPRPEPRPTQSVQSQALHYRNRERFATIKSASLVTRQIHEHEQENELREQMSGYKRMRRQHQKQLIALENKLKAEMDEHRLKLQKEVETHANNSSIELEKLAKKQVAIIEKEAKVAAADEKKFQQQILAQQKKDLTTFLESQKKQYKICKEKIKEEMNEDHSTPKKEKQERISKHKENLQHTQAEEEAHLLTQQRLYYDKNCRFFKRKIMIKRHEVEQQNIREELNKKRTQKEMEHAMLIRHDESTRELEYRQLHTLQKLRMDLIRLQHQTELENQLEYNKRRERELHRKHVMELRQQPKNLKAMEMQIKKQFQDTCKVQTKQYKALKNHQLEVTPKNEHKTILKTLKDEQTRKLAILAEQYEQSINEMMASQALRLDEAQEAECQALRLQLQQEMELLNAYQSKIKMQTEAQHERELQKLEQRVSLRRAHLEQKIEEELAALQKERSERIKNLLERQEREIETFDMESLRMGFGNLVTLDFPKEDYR
Chain of panel of human kinases (kinase named in endpoint) (Homo sapiens, UniProt P49840) (P49840 whole entry): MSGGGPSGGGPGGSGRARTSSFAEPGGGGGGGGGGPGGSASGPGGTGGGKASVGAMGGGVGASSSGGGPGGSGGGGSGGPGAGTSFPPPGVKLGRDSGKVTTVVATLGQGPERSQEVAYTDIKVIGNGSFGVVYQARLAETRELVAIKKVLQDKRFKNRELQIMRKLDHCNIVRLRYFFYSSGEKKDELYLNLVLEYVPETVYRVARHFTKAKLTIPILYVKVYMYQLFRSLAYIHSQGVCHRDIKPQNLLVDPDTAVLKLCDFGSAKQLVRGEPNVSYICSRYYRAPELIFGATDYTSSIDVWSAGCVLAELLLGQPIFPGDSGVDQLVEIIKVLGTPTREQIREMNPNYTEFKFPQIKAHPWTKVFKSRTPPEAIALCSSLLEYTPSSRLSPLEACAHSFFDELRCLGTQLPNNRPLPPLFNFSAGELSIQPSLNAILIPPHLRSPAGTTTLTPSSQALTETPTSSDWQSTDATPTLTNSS

What does the source list for `CC(C)C(=O)Nc1nc2cc(-c3ccc4c(c3)c(C(=O)NC(C)c3ccccc3)cn4C)ccn2n1` (centres unmarked) [RI-962]?
activity at 10 µM [1]: 86%; activity at 10 µM [2]: 102%; activity at 10 µM [3]: 112%; activity at 10 µM [4]: 97%; activity at 10 µM [5]: 87%; activity at 10 µM [6]: 93%; activity at 10 µM [7]: 94%; activity at 10 µM [8]: 104%; activity at 10 µM [9]: 99%; activity at 10 µM [10]: 92%; activity at 10 µM [11]: 94%; activity at 10 µM [12]: 112%; activity at 10 µM [13]: 142%; activity at 10 µM [14]: 89%; activity at 10 µM [15]: 108%; activity at 10 µM [16]: 69%; activity at 10 µM [17]: 111%; activity at 10 µM [18]: 100%; activity at 10 µM [19]: 95%; activity at 10 µM [20]: 88%; activity at 10 µM [21]: 88%; activity at 10 µM ([22]; read-out: Activity (%), CDK5/p25(h)): 92%; activity at 10 µM ([22]; read-out: Activity (%), CDK5/p35(h)): 118%; activity at 10 µM [23]: 98%; activity at 10 µM [24]: 99%; activity at 10 µM [25]: 126%
